Where “and” joins values, the source holds several entries; their conditions need not be identical. Equal values may be shown once.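 The compound was tested at five concentrations on cells cultured in 96-well plates, with a 48-hour exposure period. GI50: concentration for 50% inhibition of growth. TGI: concentration producing complete growth inhibition.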
Legend:
Assay in all cases: DTP human tumour cell line panel, 48 h
CAKI-1 renal = system: CAKI-1 renal
EKVX NSCLC = system: EKVX NSCLC
HOP-62 NSCLC = system: HOP-62 NSCLC
MALME-3M melanoma = system: MALME-3M melanoma
NCI-H522 lung = system: NCI-H522 lung
SK-OV-3 ovarian = system: SK-OV-3 ovarian
SNB-19 CNS = system: SNB-19 CNS
SR leukemia = system: SR leukemia
TK-10 renal = system: TK-10 renal
UACC-62 melanoma = system: UACC-62 melanoma

Compound: O=Nc1c2cccnc2n2nnc3ccc(Cl)cc3c12
- GI50 (CAKI-1 renal): 0.436 µM
- TGI (CAKI-1 renal): 2.35 µM
- GI50 (EKVX NSCLC): 3.59 µM
- TGI (EKVX NSCLC): 19.6 µM
- GI50 (HOP-62 NSCLC): 4.64 µM
- TGI (HOP-62 NSCLC): 11.4 µM
- GI50 (MALME-3M melanoma): 1.57 µM
- TGI (MALME-3M melanoma): 4.95 µM
- GI50 (NCI-H522 lung): 1.14 µM
- TGI (NCI-H522 lung): 3.38 µM
- GI50 (SK-OV-3 ovarian): 5.37 µM
- TGI (SK-OV-3 ovarian): 20.4 µM
- GI50 (SNB-19 CNS): 5.5 µM
- TGI (SNB-19 CNS): 22 µM
- GI50 (SR leukemia): 0.0458 µM
- TGI (SR leukemia): 2.99 µM
- GI50 (TK-10 renal): 1.66 µM
- TGI (TK-10 renal): 7.6 µM
- GI50 (UACC-62 melanoma): 3.99 µM
- TGI (UACC-62 melanoma): 11.2 µM

Compound: OCCCNCc1ccccn1
- TGI (CAKI-1 renal): > 100 µM
- TGI (EKVX NSCLC): > 100 µM
- TGI (HOP-62 NSCLC): > 100 µM
- TGI (MALME-3M melanoma): > 100 µM
- TGI (NCI-H522 lung): > 100 µM
- TGI (SK-OV-3 ovarian): > 100 µM
- TGI (SNB-19 CNS): > 100 µM
- TGI (SR leukemia): > 100 µM
- TGI (TK-10 renal): > 100 µM
- TGI (UACC-62 melanoma): > 100 µM

Compound: CCOC(=O)/C=C/c1ccc(C(=O)OCC)[nH]1
- GI50 (CAKI-1 renal): 6.36 µM
- TGI (CAKI-1 renal): > 100 µM
- GI50 (EKVX NSCLC): 9.89 µM
- TGI (EKVX NSCLC): > 100 µM
- GI50 (HOP-62 NSCLC): 7.14 µM
- TGI (HOP-62 NSCLC): > 100 µM
- GI50 (MALME-3M melanoma): 2.89 µM
- TGI (MALME-3M melanoma): > 100 µM
- GI50 (NCI-H522 lung): 2.69 µM
- TGI (NCI-H522 lung): 8.89 µM
- GI50 (SK-OV-3 ovarian): 27.8 µM
- TGI (SK-OV-3 ovarian): > 100 µM
- GI50 (SNB-19 CNS): 24.7 µM
- TGI (SNB-19 CNS): > 100 µM
- GI50 (SR leukemia): 0.676 µM
- TGI (SR leukemia): > 100 µM
- GI50 (TK-10 renal): 6.05 µM
- TGI (TK-10 renal): > 100 µM
- GI50 (UACC-62 melanoma): 5.23 µM
- TGI (UACC-62 melanoma): > 100 µM

Compound: c1cc(-c2sc(-c3ccncc3)c(-c3ccncc3)c2-c2ccncc2)ccn1
- TGI (CAKI-1 renal): > 100 µM
- TGI (EKVX NSCLC): 43.9 µM
- TGI (HOP-62 NSCLC): 78.1 µM
- TGI (MALME-3M melanoma): 32.5 µM
- TGI (NCI-H522 lung): 35.9 µM
- TGI (SK-OV-3 ovarian): 54 µM
- TGI (SNB-19 CNS): 55.9 µM
- TGI (SR leukemia): > 100 µM
- TGI (TK-10 renal): 32.9 µM
- TGI (UACC-62 melanoma): 27.8 µM

Compound: CCCCS(=N)(=O)CC[C@H](N)C(=O)O (some centres undefined)
- GI50 (CAKI-1 renal): > 1080 µM
- TGI (CAKI-1 renal): 5000 µM and > 1330 µM
- GI50 (EKVX NSCLC): 615 µM
- TGI (EKVX NSCLC): 1720 µM and 3890 µM
- GI50 (HOP-62 NSCLC): > 7620 µM
- TGI (HOP-62 NSCLC): > 10000 µM
- GI50 (MALME-3M melanoma): > 8490 µM
- TGI (MALME-3M melanoma): > 10000 µM
- GI50 (NCI-H522 lung): > 20.5 µM
- TGI (NCI-H522 lung): 351 µM and 51.9 µM
- GI50 (SK-OV-3 ovarian): > 10000 µM
- TGI (SK-OV-3 ovarian): > 10000 µM
- GI50 (SNB-19 CNS): > 10000 µM
- TGI (SNB-19 CNS): > 10000 µM
- GI50 (SR leukemia): 3980 µM
- TGI (SR leukemia): 5000 µM and > 10000 µM
- GI50 (TK-10 renal): > 10000 µM
- TGI (TK-10 renal): > 10000 µM
- GI50 (UACC-62 melanoma): > 8090 µM
- TGI (UACC-62 melanoma): > 10000 µM

Compound: CCOC(=O)/C(C1=CC(=O)C(=O)c2ccccc21)=C(/C)NCc1ccccc1
- GI50 (CAKI-1 renal): 1.61 µM
- TGI (CAKI-1 renal): 3.58 µM
- GI50 (EKVX NSCLC): 2.33 µM
- TGI (EKVX NSCLC): 5.06 µM
- GI50 (HOP-62 NSCLC): 1.56 µM
- TGI (HOP-62 NSCLC): 3.44 µM
- GI50 (MALME-3M melanoma): 1.66 µM
- TGI (MALME-3M melanoma): 3.57 µM
- GI50 (NCI-H522 lung): 1.22 µM
- GI50 (SK-OV-3 ovarian): 2.17 µM
- TGI (SK-OV-3 ovarian): 4.88 µM
- GI50 (SNB-19 CNS): 3.24 µM
- TGI (SNB-19 CNS): > 100 µM
- GI50 (SR leukemia): 0.127 µM
- TGI (SR leukemia): 0.274 µM
- GI50 (TK-10 renal): 1.72 µM
- TGI (TK-10 renal): 3.51 µM
- GI50 (UACC-62 melanoma): 2.02 µM
- TGI (UACC-62 melanoma): 3.91 µM

Compound: c1ccc(COc2ccc3[nH]c4c(ncc5[nH]c6ccccc6c54)c3c2)cc1
- TGI (CAKI-1 renal): 47.5 µM
- TGI (EKVX NSCLC): 32.4 µM
- TGI (HOP-62 NSCLC): 30.5 µM
- TGI (MALME-3M melanoma): 18.2 µM
- TGI (NCI-H522 lung): 31.9 µM
- TGI (SK-OV-3 ovarian): 32.9 µM
- TGI (SNB-19 CNS): 33.5 µM
- TGI (SR leukemia): 30.3 µM
- TGI (TK-10 renal): 40.8 µM
- TGI (UACC-62 melanoma): 35.3 µM

Compound: OC1CCC(Oc2cccc3cnc(Nc4ccc5nc[nH]c5c4)nc23)CC1 (centres undefined)
- GI50 (CAKI-1 renal): 0.497 µM
- TGI (CAKI-1 renal): 21.5 µM
- GI50 (EKVX NSCLC): 0.487 µM
- TGI (EKVX NSCLC): 10.8 µM
- GI50 (HOP-62 NSCLC): 0.331 µM
- TGI (HOP-62 NSCLC): 14.9 µM
- GI50 (MALME-3M melanoma): 1.03 µM
- TGI (MALME-3M melanoma): 5.01 µM
- GI50 (NCI-H522 lung): 1.13 µM
- TGI (NCI-H522 lung): 5.3 µM
- GI50 (SK-OV-3 ovarian): 3.35 µM
- TGI (SK-OV-3 ovarian): 47.8 µM
- GI50 (SNB-19 CNS): 0.407 µM
- TGI (SNB-19 CNS): 49.6 µM
- GI50 (SR leukemia): 0.143 µM
- TGI (SR leukemia): 0.671 µM
- GI50 (TK-10 renal): 0.296 µM
- TGI (TK-10 renal): 11.4 µM
- GI50 (UACC-62 melanoma): 0.573 µM
- TGI (UACC-62 melanoma): 7.26 µM

Compound: CC[C@@]1(OC(=O)CCC(=O)O)C(=O)OCc2c1cc1n(c2=O)Cc2cc3ccccc3nc2-1
- TGI (CAKI-1 renal): 0.612 µM
- TGI (EKVX NSCLC): > 100 µM
- TGI (HOP-62 NSCLC): 0.181 µM
- TGI (MALME-3M melanoma): 6.78 µM
- TGI (NCI-H522 lung): 3.72 µM
- TGI (SK-OV-3 ovarian): 14.2 µM
- TGI (SNB-19 CNS): > 43 µM
- TGI (SR leukemia): 0.03 µM
- TGI (TK-10 renal): 57.5 µM
- TGI (UACC-62 melanoma): 0.255 µM

Compound: OC1CCC(C2C3CCCCC3C3CCCCC3C2C2CCC(O)CC2)CC1 (centres undefined)
- TGI (CAKI-1 renal): 13 µM
- TGI (EKVX NSCLC): > 100 µM
- TGI (HOP-62 NSCLC): 47.4 µM
- TGI (MALME-3M melanoma): 41.7 µM
- TGI (NCI-H522 lung): 6.37 µM
- TGI (SK-OV-3 ovarian): 31 µM
- TGI (SNB-19 CNS): 32.2 µM
- TGI (SR leukemia): > 100 µM
- TGI (TK-10 renal): 34.9 µM
- TGI (UACC-62 melanoma): 31.2 µM

Compound: Cc1ccc2c(c1)sc(-c1ccc(N(C)C)cc1)[n+]2C
- GI50 (CAKI-1 renal): 8.84 µM
- TGI (CAKI-1 renal): > 56.2 µM
- GI50 (EKVX NSCLC): 0.379 µM
- TGI (EKVX NSCLC): > 100 µM
- GI50 (HOP-62 NSCLC): 3.66 µM
- TGI (HOP-62 NSCLC): > 41.4 µM
- GI50 (MALME-3M melanoma): 1.38 µM
- TGI (MALME-3M melanoma): 15.4 µM
- GI50 (NCI-H522 lung): 1.45 µM
- TGI (NCI-H522 lung): > 100 µM
- GI50 (SK-OV-3 ovarian): 2.04 µM
- TGI (SK-OV-3 ovarian): 7.91 µM
- GI50 (SNB-19 CNS): 1.95 µM
- TGI (SNB-19 CNS): 21 µM
- GI50 (SR leukemia): 0.125 µM
- TGI (SR leukemia): 19.4 µM
- GI50 (TK-10 renal): 1.99 µM
- TGI (TK-10 renal): 11.2 µM
- GI50 (UACC-62 melanoma): 2.07 µM
- TGI (UACC-62 melanoma): 15.5 µM

Compound: Nc1ccc2c(c1)[O][Sn]([c]1ccccc1)([c]1ccccc1)[O]C2=O
- GI50 (CAKI-1 renal): 4.89 µM
- TGI (CAKI-1 renal): 10.5 µM
- GI50 (EKVX NSCLC): 10.6 µM
- TGI (EKVX NSCLC): 25 µM
- GI50 (HOP-62 NSCLC): 19.6 µM
- TGI (HOP-62 NSCLC): 34.9 µM
- GI50 (MALME-3M melanoma): 3.18 µM
- TGI (MALME-3M melanoma): 8.22 µM
- GI50 (NCI-H522 lung): 0.592 µM
- TGI (NCI-H522 lung): 2.36 µM
- GI50 (SK-OV-3 ovarian): 14.7 µM
- TGI (SK-OV-3 ovarian): 43.8 µM
- GI50 (SNB-19 CNS): 17.3 µM
- TGI (SNB-19 CNS): 31.3 µM
- GI50 (SR leukemia): 3.01 µM
- TGI (SR leukemia): > 30.4 µM
- GI50 (TK-10 renal): 7.34 µM
- TGI (TK-10 renal): 15.6 µM
- GI50 (UACC-62 melanoma): 5.94 µM
- TGI (UACC-62 melanoma): 16.3 µM

Compound: COC(=O)/C(=N/NC(C)(C)C)C(C(=O)C=C(C)C)C(=O)C(=O)Nc1ccc(Cl)cc1C (centres undefined)
- TGI (CAKI-1 renal): > 100 µM
- TGI (EKVX NSCLC): > 100 µM
- TGI (HOP-62 NSCLC): > 100 µM
- TGI (MALME-3M melanoma): > 100 µM
- TGI (NCI-H522 lung): > 100 µM
- TGI (SK-OV-3 ovarian): > 100 µM
- TGI (SNB-19 CNS): > 100 µM
- TGI (SR leukemia): > 100 µM
- TGI (TK-10 renal): > 100 µM
- TGI (UACC-62 melanoma): > 100 µM

— PubChem BioAssay (NCI)
